From article PMC11695783 (Frontiers in Pharmacology, 2024)
≈ marks a conversion by molar mass, not a printed value. Read-outs that look alike come from different tables or passages of the source.

Assays:
mice = conditions: oral acute toxicity; ref Fan et al., 2022; Hu et al.; Zhang et al., 2015; Zuo et al., 2020; cited from earlier work
[1] = broilers, cited from earlier work
[2] = parameters: method as in Wang Y. et al., 2024; Zuo et al., 2020; conditions: chickens, ref Wang Y. et al., 2024, Zuo et al., 2020, cited from earlier work
[3] = 2020, cited from earlier work; for AUC0-∞: ref Zuo et al.; for bioavailability: mice, ref Wang Y. et al., 2024, Zuo et al.
M. pneumoniae = test system: M. pneumoniae; parameters: method as in Eraikhuemen et al., 2021; conditions: against M. pneumoniae; ref Eraikhuemen et al., 2021; cited from earlier work
[4] = test system: Mycoplasma pneumoniae strain M129 (ATCC 29342); assay: Susceptibility assay (broth microdilution MIC, MBC); assay type: cell-based
Experimental: (§1) Mycoplasma pneumoniae strain M129 (ATCC 29342) was obtained from American Type Culture Collection (Manassas, VA, United States) and cultured at 37°C in the presence of 5% CO2 in the modified SP-4 liquid medium (pH 7.4) containing 2.1% (w/v) CM1166 mycoplasma broth base medium (Oxoid, Hants, United Kingdom), 20% (v/v) fetal bovine serum (FBS, Bioexplorer, CO, United States), 0.4% yeast extract (Oxoid), 0.55% (w/v) CMRL 1066 w/L-glutamine culture media powder (MyBioSource, San Diego, CA, United States), 1% D-glucose (Macklin) and 0.004% phenol red (Macklin). […] The solid medium is based on the above formula with the addition of 1% agar, and the characteristic fried egg-like colonies were used for experiments following incubation for 7 d on plates.
The broth microdilution MIC procedure was performed according to standardized methods for microdilution susceptibility testing of mycoplasma species ([Waites et al., 2012]). […] The concentration of organisms should be determined to approximately 10^6 CFU/mL prior to inoculation into 96-well plates. Due to the action of phenol red, the acidic metabolites of microbial growth can turn the medium yellow. […] The MBC assays were performed based on MICs following endpoint reading and the liquid in the high-concentration wells was removed for bacterial counting.

[5] = test system: Mycoplasma pneumoniae strain M129 (ATCC 29342); assay: Time-kill curves; assay type: cell-based; parameters: M. pneumoniae count in time-kill curve: unit not given here
Experimental: as §1
The tubes were incubated at 37°C in 5% CO2 for 72 h, and 200 µL of the culture was removed every 12 h for 10-fold serial dilutions. The diluted cultures were plated on plates for further culture and counted after 7 d. The experiment was repeated three times.

Q: Which LD50 (mice) does the source give for `C=C[C@]1(C)C[C@@H](OC(=O)CSc2nnc(N)s2)[C@]2(C)[C@H](C)CC[C@]3(CCC(=O)[C@H]32)[C@@H](C)[C@@H]1O` [ATTM, 14-o-[(2-amino-1,3,4-thiadiazol-5-yl)thioacetyl] mutilin] here?
A: The LD50 was 2,304.4 mg/kg.

Q: And the bioavailability ([1]; IM, ref Shang et al., 2018, Xianhui, 2010)?
A: The bioavailability was 75.29%.

Q: What about the bioavailability ([1]; PO, ref Shang et al., 2018, Xianhui, 2010) of the same compound?
A: Its bioavailability is 72.03%.

Q: For `C=C[C@]1(C)C[C@@H](OC(=O)CSc2ccccc2N)[C@]2(C)[C@H](C)CC[C@]3(CCC(=O)[C@H]32)[C@@H](C)[C@@H]1O` [amphenmulin, 22-(2-amino-phenylsulfanyl)-22-deoxypleuromutilin], which LD50 (mice) is on record?
A: Its LD50 is > 5,000 mg/kg.

Q: What about the bioavailability ([2]; IM) of the same compound?
A: The bioavailability was 52.14%.

Q: What about the bioavailability ([2]; PO) of the same compound?
A: Its bioavailability is 5.88%.

Q: And the “AUC0-∞” value ([3]; intraperitoneal, at the same dose)?
A: Its value is 2520 ng·h/mL.

Q: What about the “AUC0-∞” value ([3]; intravenous, at the same dose as compound 16C) of the same compound?
A: Its value is 12230 ng·h/mL.

Q: What about the bioavailability ([3]; IP) of the same compound?
A: The bioavailability was 20.71%.

Q: And the bioavailability ([3]; PO)?
A: Its bioavailability is 13.65%.

Q: And the “AUC0-∞” value ([3]; oral, at the same dose)?
A: Its value is 1670 ng·h/mL.

Q: With `C=C[C@]1(C)C[C@@H](OC(=O)CS[C@@H]2CC[C@@H](N)C[C@H]2O)[C@]2(C)[C@H](C)CC[C@]3(CCC(=O)[C@H]32)[C@@H](C)[C@@H]1O` [lefamulin] as the compound, how does the MIC90 (M. pneumoniae) read?
A: The MIC90 was 0.006 µg/mL (≈ 0.0118 µM).

Q: Which MBC [4] does the source give for `CN(C)[C@@H]1C(O)=C(C(N)=O)C(=O)[C@@]2(O)C(O)=C3C(=O)c4c(O)cccc4[C@@](C)(O)[C@H]3C[C@@H]12` [tetracycline] here?
A: The MBC was 3.2 µg/mL (≈ 7.2 µM).

Q: And the “M. pneumoniae count in time-kill curve” value ([5]; 1×MIC, time 0)?
A: Its value is 6.522.

Q: And the “M. pneumoniae count in time-kill curve” value ([5]; 1×MIC, time 12)?
A: Its value is 6.243.

Q: What about the “M. pneumoniae count in time-kill curve” value ([5]; 1×MIC, time 24) of the same compound?
A: Its value is 5.358.

Q: And the “M. pneumoniae count in time-kill curve” value ([5]; 1×MIC, time 36)?
A: The value was 5.0751.

Q: And the “M. pneumoniae count in time-kill curve” value ([5]; 1×MIC, time 48)?
A: The value was 3.623.

Q: What about the “M. pneumoniae count in time-kill curve” value ([5]; 1×MIC, time 60) of the same compound?
A: The value was 4.011.

Q: And the “M. pneumoniae count in time-kill curve” value ([5]; 1×MIC, time 72)?
A: The value was 4.04.

Q: What about the “reduction of bacterial counts” value ([5]; 1–2×MIC, 72 h) of the same compound?
A: Its value is 2.38–2.48 log10 CFU/mL.

Q: What about the “M. pneumoniae count in time-kill curve” value ([5]; 2×MIC, time 0) of the same compound?
A: The value was 6.522.

Q: What about the “M. pneumoniae count in time-kill curve” value ([5]; 2×MIC, time 12) of the same compound?
A: The value was 5.562.

Q: And the “M. pneumoniae count in time-kill curve” value ([5]; 2×MIC, time 24)?
A: The value was 5.13.

Q: And the “M. pneumoniae count in time-kill curve” value ([5]; 2×MIC, time 36)?
A: The value was 4.505.

Q: What about the “M. pneumoniae count in time-kill curve” value ([5]; 2×MIC, time 48) of the same compound?
A: The value was 3.395.

Q: And the “M. pneumoniae count in time-kill curve” value ([5]; 2×MIC, time 60)?
A: The value was 3.925.

Q: And the “M. pneumoniae count in time-kill curve” value ([5]; 2×MIC, time 72)?
A: The value was 4.141.

Q: And the “M. pneumoniae count in time-kill curve” value ([5]; 4×MIC, time 0)?
A: Its value is 6.522.

Q: And the “M. pneumoniae count in time-kill curve” value ([5]; 4×MIC, time 12)?
A: The value was 5.527.

Q: And the “M. pneumoniae count in time-kill curve” value ([5]; 4×MIC, time 24)?
A: Its value is 4.565.

Q: And the “M. pneumoniae count in time-kill curve” value ([5]; 4×MIC, time 36)?
A: Its value is 4.182.

Q: What about the “M. pneumoniae count in time-kill curve” value ([5]; 4×MIC, time 48) of the same compound?
A: Its value is 3.523.

Q: And the “M. pneumoniae count in time-kill curve” value ([5]; 4×MIC, time 60)?
A: The value was 3.499.

Q: What about the “M. pneumoniae count in time-kill curve” value ([5]; 4×MIC, time 72) of the same compound?
A: Its value is 3.057.

Q: And the “M. pneumoniae count in time-kill curve” value ([5]; 8×MIC, time 0)?
A: The value was 6.522.

Q: And the “M. pneumoniae count in time-kill curve” value ([5]; 8×MIC, time 12)?
A: Its value is 5.0382.

Q: What about the “M. pneumoniae count in time-kill curve” value ([5]; 8×MIC, time 24) of the same compound?
A: The value was 4.431.

Q: And the “M. pneumoniae count in time-kill curve” value ([5]; 8×MIC, time 36)?
A: The value was 4.11.

Q: What about the “M. pneumoniae count in time-kill curve” value ([5]; 8×MIC, time 48) of the same compound?
A: Its value is 3.568.

Q: What about the “M. pneumoniae count in time-kill curve” value ([5]; 8×MIC, time 60) of the same compound?
A: The value was 3.5.

Q: And the “M. pneumoniae count in time-kill curve” value ([5]; 8×MIC, time 72)?
A: Its value is 3.462.

Q: What about the “M. pneumoniae count in time-kill curve” value ([5]; 16×MIC, time 0) of the same compound?
A: The value was 6.522.

Q: And the “M. pneumoniae count in time-kill curve” value ([5]; 16×MIC, time 12)?
A: Its value is 5.216.

Q: What about the “M. pneumoniae count in time-kill curve” value ([5]; 16×MIC, time 24) of the same compound?
A: The value was 4.191.

Q: And the “M. pneumoniae count in time-kill curve” value ([5]; 16×MIC, time 36)?
A: The value was 3.827.

Q: And the “M. pneumoniae count in time-kill curve” value ([5]; 16×MIC, time 48)?
A: Its value is 3.742.

Q: And the “M. pneumoniae count in time-kill curve” value ([5]; 16×MIC, time 60)?
A: The value was 3.715.

Q: And the “M. pneumoniae count in time-kill curve” value ([5]; 16×MIC, time 72)?
A: The value was 3.031.

Q: And the “M. pneumoniae count in time-kill curve” value ([5]; 32×MIC, time 0)?
A: Its value is 6.522.

Q: And the “M. pneumoniae count in time-kill curve” value ([5]; 32×MIC, time 12)?
A: Its value is 4.677.

Q: What about the “M. pneumoniae count in time-kill curve” value ([5]; 32×MIC, time 24) of the same compound?
A: The value was 4.038.

Q: And the “M. pneumoniae count in time-kill curve” value ([5]; 32×MIC, time 36)?
A: The value was 3.597.

Q: What about the “M. pneumoniae count in time-kill curve” value ([5]; 32×MIC, time 48) of the same compound?
A: The value was 3.571.

Q: And the “M. pneumoniae count in time-kill curve” value ([5]; 32×MIC, time 60)?
A: Its value is 3.497.

Q: And the “M. pneumoniae count in time-kill curve” value ([5]; 32×MIC, time 72)?
A: The value was 3.078.

Q: What about the “M. pneumoniae count in time-kill curve” value ([5]; 64×MIC, time 0) of the same compound?
A: Its value is 6.522.

Q: And the “M. pneumoniae count in time-kill curve” value ([5]; 64×MIC, time 12)?
A: The value was 4.323.

Q: And the “M. pneumoniae count in time-kill curve” value ([5]; 64×MIC, time 24)?
A: The value was 4.306.

Q: And the “M. pneumoniae count in time-kill curve” value ([5]; 64×MIC, time 36)?
A: The value was 3.779.

Q: What about the “M. pneumoniae count in time-kill curve” value ([5]; 64×MIC, time 48) of the same compound?
A: The value was 3.079.

Q: And the “M. pneumoniae count in time-kill curve” value ([5]; 64×MIC, time 60)?
A: Its value is 3.41.

Q: What about the “M. pneumoniae count in time-kill curve” value ([5]; 64×MIC, time 72) of the same compound?
A: The value was 3.079.

Q: And the “concentration at which bactericidal effect was achieved” value ([5]; static time-kill, 72 h)?
A: The value was no less than 4 × MIC.

Q: Which bioavailability ([1]; IM, ref WANG et al., 2011) does the source give for `C=C[C@]1(C)C[C@@H](OC(=O)CSC(C)(C)CNC(=O)[C@H](N)C(C)C)[C@]2(C)[C@H](C)CC[C@]3(CCC(=O)[C@H]32)[C@@H](C)[C@@H]1O` [valnemulin] here?
A: The bioavailability was 88.81%.
